Source: the NIST ThermoML archive (doi:10.1021/je700245a)

Experiment: xn = mol fraction of the nth substance listed
Conditions: 101 kPa, Liquid

CCO [ethanol] + CN(CCO)CCO
Sing-around technique in a fixed-path interferometer, x2 = 0
Conditions | speed of sound [m/s]
288.15 K | 1179
293.15 K | 1162
298.15 K | 1144.9
303.15 K | 1128
308.15 K | 1111.1
313.15 K | 1094.3

x2 = 0
Conditions | mass density [kg/m3]
288.15 K | 793.6
293.15 K | 789.35
298.15 K | 785.06
303.15 K | 780.76
308.15 K | 776
313.15 K | 772.03

CCO [ethanol] + OCCN(CCO)CCO
x2 = 0
Conditions | mass density [kg/m3] | speed of sound [m/s]
288.15 K | 793.6 | 1179
293.15 K | 789.35 | 1162
298.15 K | 785.06 | 1144.9
303.15 K | 780.76 | 1128
308.15 K | 776 | 1111.1
313.15 K | 772.03 | 1094.3

OCCN(CCO)CCO [triethanolamine] + CCO
Conditions | mass density [kg/m3] | speed of sound [m/s]
288.15 K, x1 = 0.0075 | 799.61 | 1185.2
288.15 K, x1 = 0.0184 | 808.53 | 1193.4
288.15 K, x1 = 0.0304 | 818 | 1202.1
288.15 K, x1 = 0.0622 | 840.61 | 1225.5
288.15 K, x1 = 0.1385 | 889.41 | 1277
288.15 K, x1 = 0.2275 | 935.37 | 1333.2
288.15 K, x1 = 0.335 | 979.49 | 1397
288.15 K, x1 = 0.4675 | 1021.75 | 1453.1
288.15 K, x1 = 0.6413 | 1064.29 | 1528
288.15 K, x1 = 0.779 | 1091.59 | 1558.4
288.15 K, x1 = 0.8537 | 1104.43 | 1597.9
288.15 K, x1 = 0.9328 | 1116.76 | 1617.3
288.15 K, x1 = 1 | 1126.19 | 1640.5
293.15 K, x1 = 0.0075 | 795.43 | 1168.3
293.15 K, x1 = 0.0184 | 804.51 | 1176.9
293.15 K, x1 = 0.0304 | 813.73 | 1185.9
293.15 K, x1 = 0.0622 | 836.37 | 1210
293.15 K, x1 = 0.1385 | 885.58 | 1262.7
293.15 K, x1 = 0.2275 | 931.77 | 1320
293.15 K, x1 = 0.335 | 976.06 | 1385
293.15 K, x1 = 0.4675 | 1018.53 | 1442.5
293.15 K, x1 = 0.6413 | 1061.37 | 1516.6
293.15 K, x1 = 0.779 | 1088.73 | 1546.8
293.15 K, x1 = 0.8537 | 1101.67 | 1585.3
293.15 K, x1 = 0.9328 | 1114.01 | 1604.6
293.15 K, x1 = 1 | 1123.42 | 1625.6
298.15 K, x1 = 0.0075 | 791.34 | 1151.4
298.15 K, x1 = 0.0184 | 800.35 | 1160.4
298.15 K, x1 = 0.0304 | 809.59 | 1170
298.15 K, x1 = 0.0622 | 832.35 | 1194.4
298.15 K, x1 = 0.1385 | 881.74 | 1248.6
298.15 K, x1 = 0.2275 | 928.14 | 1307.1
298.15 K, x1 = 0.335 | 972.67 | 1373.1
298.15 K, x1 = 0.4675 | 1015.52 | 1431.6
298.15 K, x1 = 0.6413 | 1058.61 | 1505.9
298.15 K, x1 = 0.779 | 1086.14 | 1536.4
298.15 K, x1 = 0.8537 | 1099.23 | 1574.3
298.15 K, x1 = 0.9328 | 1111.63 | 1593.8
298.15 K, x1 = 1 | 1120.99 | 1614.5
303.15 K, x1 = 0.0075 | 786.78 | 1134.6
303.15 K, x1 = 0.0184 | 796.27 | 1143.9
303.15 K, x1 = 0.0304 | 805.5 | 1153.8
303.15 K, x1 = 0.0622 | 828.41 | 1178.9
303.15 K, x1 = 0.1385 | 877.88 | 1234.5
303.15 K, x1 = 0.2275 | 924.44 | 1294.3
303.15 K, x1 = 0.335 | 969.17 | 1361.4
303.15 K, x1 = 0.4675 | 1012.27 | 1420.9
303.15 K, x1 = 0.6413 | 1055.67 | 1496
303.15 K, x1 = 0.779 | 1083.38 | 1526.6
303.15 K, x1 = 0.8537 | 1096.33 | 1564.5
303.15 K, x1 = 0.9328 | 1108.88 | 1584.2
303.15 K, x1 = 1 | 1118.21 | 1604.5
308.15 K, x1 = 0.0075 | 782.53 | 1117.9
308.15 K, x1 = 0.0184 | 791.61 | 1127.4
308.15 K, x1 = 0.0304 | 801.05 | 1137.7
308.15 K, x1 = 0.0622 | 824.11 | 1163.4
308.15 K, x1 = 0.1385 | 873.56 | 1220.4
308.15 K, x1 = 0.2275 | 920.24 | 1281.5
308.15 K, x1 = 0.335 | 965.2 | 1349.9
308.15 K, x1 = 0.4675 | 1008.69 | 1410.5
308.15 K, x1 = 0.6413 | 1052.55 | 1486.6
308.15 K, x1 = 0.779 | 1080.43 | 1517.4
308.15 K, x1 = 0.8537 | 1093.46 | 1555.6
308.15 K, x1 = 0.9328 | 1106.09 | 1575.4
308.15 K, x1 = 1 | 1115.38 | 1595.5
313.15 K, x1 = 0.0075 | 778.51 | 1101.2
313.15 K, x1 = 0.0184 | 787.72 | 1111.1
313.15 K, x1 = 0.0304 | 797.32 | 1121.6
313.15 K, x1 = 0.0622 | 820.47 | 1148
313.15 K, x1 = 0.1385 | 869.89 | 1206.4
313.15 K, x1 = 0.2275 | 916.68 | 1268.8
313.15 K, x1 = 0.335 | 961.76 | 1338.4
313.15 K, x1 = 0.4675 | 1005.44 | 1400.1
313.15 K, x1 = 0.6413 | 1049.55 | 1477.3
313.15 K, x1 = 0.779 | 1077.53 | 1508.5
313.15 K, x1 = 0.8537 | 1090.66 | 1547
313.15 K, x1 = 0.9328 | 1103.23 | 1567.1
313.15 K, x1 = 1 | 1112.57 | 1586
